Source: article PMC10587737, “Dracorhodin targeting CMPK2 attenuates inflammation: A novel approach to sepsis therapy” (Clinical and Translational Medicine, 2023)

Key:
CMPK2^Lys265 protein = target: T1, CMPK2^Lys265 protein (Homo sapiens, UniProt Q5EBM0, K265A); assay: MST binding to CMPK2 Lys265 mutant; conditions: Lys265 mutated
T1 construct: the N‐terminus was truncated by 22 amino acids; 6xHis (C); made in house; host or cells: FreeStyle 293-F cells (pTT5 vector)
T1 sequence (Q5EBM0 22-449 K265A): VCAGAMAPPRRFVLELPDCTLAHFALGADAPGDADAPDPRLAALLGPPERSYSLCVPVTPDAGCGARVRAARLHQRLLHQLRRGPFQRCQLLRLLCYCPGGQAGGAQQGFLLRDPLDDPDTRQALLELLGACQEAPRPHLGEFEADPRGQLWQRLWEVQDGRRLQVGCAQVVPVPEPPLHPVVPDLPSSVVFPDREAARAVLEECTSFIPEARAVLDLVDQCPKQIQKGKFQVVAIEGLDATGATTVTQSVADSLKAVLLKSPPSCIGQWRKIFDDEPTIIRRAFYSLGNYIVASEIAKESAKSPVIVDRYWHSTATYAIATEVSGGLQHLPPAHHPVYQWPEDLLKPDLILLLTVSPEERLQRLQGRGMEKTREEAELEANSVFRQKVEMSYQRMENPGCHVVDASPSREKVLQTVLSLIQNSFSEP
Procedure: Human CMPK2 and K265, K282 and K320 mutated CMPK2 cDNA were cloned and inserted into the pTT5 vector, and the constructed plasmid was amplified by the DH5α strain. The C‐terminus of the cDNA was fused with a 6× His tag, and the N‐terminus was truncated by 22 amino acids (Figure 1B–F and Supporting Information Figure S5A,B). When the free‐style 293‐F cells reached the proper density, approximately 1 mg of expression plasmid was premixed with 3 mg polyethylenimine in UltraFectin medium and incubated prior to transfection. This mixture was then added to the appropriate amount of fresh cell culture medium, incubated for 30 min and collected after 48 h.
The MST assay is an emerging technique used to quantitatively elucidate binding. The binding parameter between CMPK2 and DP was measured using MST on a Monolith NT.115 system (Germany). CMPK2 was fluorescently labeled with the Monolith NT Protein Labeling Kit RED (L018, NanoTemper Technologies GmbH, Munich, Germany) according to the manufacturer’s instructions. The Monolith NT.115 system was used with Monolith NT.115 standard capillaries (M0-K022). MST assay buffer was used to dilute the labeled CMPK2 to 2 μM. […] The binding and dissociation constants (Kd) were evaluated and calculated using M0-Affinity analysis software version 2.1.3 (Nano Temper Technologies) for the ligand.

BMDMs = assay: Mitochondrial membrane potential (JC-1) and mtROS (MitoSOX); assay type: cell-based, mouse; conditions: DP 12 h, LPS priming, ATP
Procedure: The treated bone marrow‐derived macrophages (BMDMs) and JC‐1 working solution were incubated in a cell incubator for 30 min. At the end of the warm incubation, the cells were washed three times with PBS, and images were captured with a Harmony 4.8 (PerkinElmer). Meanwhile, the stained BMDMs were quantified by flow cytometry.
For mitochondrial ROS (mtROS) measurement, according to the instruction guidelines, a diluted 5 μM MitoSOX working solution was incubated with treated BMDMs in a cell incubator for 10 min according to the instructional guidelines. The BMDMs were gently washed with warm buffer to remove the working solution. The images were captured using Harmony 4.8 (PerkinElmer). Meanwhile, the stained BMDMs were quantified by flow cytometry.

[1] = tested on: LPS-induced septic shock in C57BL/6 mice; assay: LPS-induced septic shock model; assay type: in vivo, mouse
Procedure: Sepsis was induced by intraperitoneal injection of 8- to 12-week-old gender-matched wild-type mice with LPS (E. coli O111:B4, Sigma-Aldrich) at 20 mg per kg body weight. Mouse survival was monitored every 1 h after injection for a total of 72 h. In a separate experiment, mice were treated with the same dose of LPS, and immune sera were collected 6 h post injection. Then, the abdominal cavity was washed with PBS. The levels of IL-1β and TNF-α in serum and peritoneal lavage ﬂuid were determined by ELISA. Then, the livers, kidneys and lungs were immediately removed and washed in ice-cold PBS. They were fixed with 4% paraformaldehyde, which was used for hematoxylin-eosin (H&E), Masson staining and Sirius red staining.

[2] = myeloid tissue, western blot, DP 40 mg/kg
[3] = serum and peritoneal lavage fluid, DP 2 h pre-treatment, 6 h LPS

## COc1c2ccc(-c3ccccc3)oc-2cc(=O)c1C [compound 73, Dracohodin perochlorate]
CMPK2^Lys265 protein
  binding (Kd by MST): no binding
BMDMs
  mitochondrial membrane potential: significantly reversed
  mtROS production: inhibited
[1]; BIOPAC System-MP160
  blood pressure (hypotension): could improve hypotension
  heart rate: no significant difference
[1]; BP-2010A instrument
  blood pressure changes: not captured significant differences
[1]; DP 40 mg/kg given before or after sepsis outbreak
  survival rate: significantly improved
[1]; DP 10, 20, 40 mg/kg 2 h before LPS 20 mg/kg i.p., 72 h
  survival (lethal inflammation): suppressed the lethal inflammation
[1]; liver, lung, kidney histopathology, DP 10, 20, 40 mg/kg
  LPS-induced inflammatory infiltration and fibrosis: distinctly alleviated
[1]; model group vs drug administration groups
  body weight, body temperature and heart rate: no significant difference
[1]; [2]
  CMPK2 expression in vivo: markedly blocked
  activated caspase-1: prevents the increase
[1]; [3]
  IL-1β production: reduced
  TNF-α production: did not affect
